Experimental data taken from patent US20230038188A1 (priority 2021, published 2023).
Values joined by “and” are separate entries in the source; they are usually repeats but may differ in a detail not shown here. Equal values may be shown once.

What was measured:
Format in all cases: biochemical
Details in all cases: 1.5 mg/ml
prothrombin = test: Prothrombin time (plasma clotting time with PT reagent)
Procedure: (§1) The blood clotting inhibitory activity (thrombus formation inhibitory activity) of each of the wasp extracts prepared in Example 1 was evaluated by measuring the thrombin time, the prothrombin time and the aPTT time in the same manner as a previously reported method (Sohn et al., 2004. Kor. J. Pharmacogn 35. 52-61; Kwon et al., 2004. J. Life Science, 14. 509-513; Ryu et al., 2010. J. Life Science, 20. 922-928). As plasma, control plasma (MD Pacific Technology Co., Ltd., Huayuan Industrial Area, China) was used. The thrombin time, the prothrombin time and the aPTT time were measured by the following methods.
70 μl of standard plasma (MD Pacific Co., China) and 10 μl of each sample extract at various concentrations were added to a tube of Amelung coagulometer KC-1A (Japan) and warmed at 37° C. for 3 minutes, and then 130 μl of PT reagent was added thereto. The time taken for the plasma to clot was expressed as the average of three repeated experiments. […] The prothrombin inhibitory activity was expressed as the value obtained by dividing the clotting time after sample addition by the clotting time of the solvent control.

blood clotting factors = test: Activated partial thromboplastin time (aPTT)
Procedure: as §1
Activated Partial Thromboplastin Time (aPTT)
100 μl of plasma and 10 μl of each sample extract at various concentrations were added to a tube of Amelung coagulometer KC-1A (Japan) and warmed at 37° C. for 3 minutes, and then 50 μl of aPTT reagent (Sigma, ALEXIN™) was added thereto, followed by incubation at 37° C. for 3 minutes. Thereafter, 50 μl of CaCl2) (35 mM) was added thereto, and then the time taken for the plasma to clot was measured. […] The aPTT was expressed as the average of three repeated experiments, and the blood clotting inhibitory activity was expressed as the value obtained by dividing the aPTT after sample addition by the aPTT of the solvent control.

human thrombin = target: T1, human thrombin (Homo sapiens, UniProt P00734); test: Thrombin time (plasma clotting time with added thrombin)
T1 construct: 50 μl of 0.5 U thrombin (Sigma Co., USA); purchased Sigma Co., USA
Procedure: as §1
50 μl of 0.5 U thrombin (Sigma Co., USA), 50 μl of 20 mM CaCl2) and 10 μl of each sample extract at various concentrations were mixed in a tube of Amelung coagulometer KC-1A (Japan) at 37° C. and allowed to react for 2 minutes, and then 100 μl of plasma was added thereto and the time taken for the plasma to clot was measured. As a control, aspirin (Sigma Co., USA) was used, and a solvent control, DMSO was used instead of the sample. […] The thrombin inhibitory effect was expressed as the average of three or more repeated experiments, and the thrombin inhibitory activity was expressed as the value obtained by dividing the clotting time after sample addition by the clotting time of the solvent control.

Thrombin time (blood clotting time after sample addition/blood clotting time after solvent addition) (human thrombin; Table 2): 1.54 and 1.54 ± 0.11
Thrombin time (blood clotting time after sample addition/blood clotting time after solvent addition) (human thrombin; Table 4): 1.43 ± 0.04
Structure (SMILES): CC(=O)Oc1ccccc1C(=O)O [Aspirin]
Prothrombin time (blood clotting time after sample addition/blood clotting time after solvent addition) (prothrombin; Table 2): 1.44 and 1.44 ± 0.04
Prothrombin time (blood clotting time after sample addition/blood clotting time after solvent addition) (prothrombin; Table 4): 1.73 ± 0.01
Blood clotting factor inhibition time (aPTT time) (sample/solvent) (blood clotting factors; Table 2): 1.55 and 1.55 ± 0.07
Blood clotting factor inhibition time (aPT time) (sample/solvent) (blood clotting factors; Table 4): 1.42 ± 0.03
